In patent US11091529B2, “Peptides having reduced toxicity that stimulate cholesterol efflux” (The Regents of the University of California, priority 2014, dated 2021):
Where no end group is shown, it is not given here.

System: male, chow-fed C57Bl/6 mice
Test: Safety and TG elevating effects after IP injection of peptides (plasma CPK, ALT, AST, TG)
Conditions: 300 mg/kg IP; for muscle toxicity as judged by CPK activity in plasma: compared with ATI-5261
Text: Since the position of positively charged amino acids near the lipid-water interface of class A α-helices is thought to mediate membrane interactions, we tested whether inverting the positions of positive and negative residues within ATI-5261 lessened the toxic response of the peptide at high doses. Panel A—Helical-wheel and net diagrams of ATI-5261 showing the positions of positively charged lysine (K) and arginine (R) at the lipid interface of the amphipathic α-helix (i.e. helical wheel diagrams on left). […] Plasma CPK, ALT, AST and TG (table) were assessed after 4 h. Values and means±SD, n=4.
Panel A—The positions of charged amino acids within the LeuATI-5261 peptide were switched to move the positive lysine and arginine residues away from the lipid-water interface of the amphipathic α-helix. Panel B— Safety and TG elevating effects were evaluated by injecting (IP) peptides (300 mg/kg) into male, chow-fed C57Bl/6 mice. Values are means SD, n=4. […] J774 macrophages were labeled with [3H]cholesterol and treated with (red, right side bars) and without (blue, left side bars) cAMP to modulate ABCA1 expression.
Panel A—Safety and TG elevating effects were evaluated by injecting (IP) peptides (300 mg/kg) into male, chow-fed C57Bl/6 mice. Values are means SD, n=4. […] Panel B-ABCA1-dependent cholesterol efflux activity of peptides determined using J774 macrophages labeled with [3H]cholesterol. Results are expressed as the ABCA1 component of efflux.
Peptides or peptidomeimetics of the invention can be evaluated for toxicity using known assays. […] Safety chemistry panels including plasma alanine aminotransferase (ALT), aspartate amino transferase (AST), and creatine kinase (CK) can then be determined in the blood. […]
Since the position of positively charged amino acids near the lipid-water interface of class A α-helices is thought to mediate membrane interactions, we tested whether inverting the positions of positive and negative residues within ATI-5261 lessened the toxic response of the peptide at high doses. […] Plasma CPK, ALT, AST and TG (table) were assessed after 4 h as described in FIGS. 4-6. […]

| Sequence | muscle toxicity as judged by CPK activity in plasma | cytotoxicity (plasma CPK, ALT, AST) (plasma after 4 h, n=4) |
| --- | --- | --- |
| EVRSKLEEWFAAFREFAEEFLARLNS [T5594-4] | greatly reduced muscle toxicity |  |
| EVRSKLEEWFAAFREFAEEFLARL [T5766-5] | greatly reduced muscle toxicity |  |
| KVESELREWLAALEKLARRLLAELES [T6023-2] |  | no increase in muscle toxicity or elevated plasma enzymes compared to vehicle alone |
